Consider one compound from patent US20050239884A1, “Compositions comprising hmg-coa reductase inhibitor” (priority 2002, published 2005).

This series can be described thus: degradation kinetics of fluvastatin in aqueous solution at various pH. Format: physicochemical.

Structures are written as SMILES. Where a name gives a salt, the structure may show the parent alone.

Consider `CC(C)n1c(/C=C/C(O)CC(O)CC(=O)O)c(-c2ccc(F)cc2)c2ccccc21` (stereo not drawn) [fluvastatin, R*,S*-(E)-(±)-7-[3-(4-fluorophenyl)-1-(1-methyl-ethyl)-1H-indol-2-yl]-3,5-dihydroxy-6-heptenoic acid, sodium salt], for which the “% fluvastatin remaining at 37° C. after 1 hour” value is reported as 10.9% (pH 1.0, 37° C.); 86.7% (pH 4.0, 37° C.); 99.6% (pH 6.0, 37° C.); 98.3% (pH 7.8, 37° C.). The “% fluvastatin remaining at 37° C. after 24 hrs” value (pH 1.0, 37° C.) turned out to be 0%; the “% fluvastatin remaining at 37° C. after 24 hrs” value (pH 4.0, 37° C.) amounted to 25.2%; the “% fluvastatin remaining at 37° C. after 24 hrs” value (pH 6.0, 37° C.) is reported as 97.1%; the “% fluvastatin remaining at 37° C. after 24 hrs” value (pH 7.8, 37° C.) was 98.0%.
